The source of these data is paper PMC7416039 (Pharmacology Research & Perspectives, 2020).

The target in this assay is T1, human aldehyde dehydrogenase 2 (ALDH2) (Homo sapiens, UniProt P05091).
T1 sequence (P05091 18-517): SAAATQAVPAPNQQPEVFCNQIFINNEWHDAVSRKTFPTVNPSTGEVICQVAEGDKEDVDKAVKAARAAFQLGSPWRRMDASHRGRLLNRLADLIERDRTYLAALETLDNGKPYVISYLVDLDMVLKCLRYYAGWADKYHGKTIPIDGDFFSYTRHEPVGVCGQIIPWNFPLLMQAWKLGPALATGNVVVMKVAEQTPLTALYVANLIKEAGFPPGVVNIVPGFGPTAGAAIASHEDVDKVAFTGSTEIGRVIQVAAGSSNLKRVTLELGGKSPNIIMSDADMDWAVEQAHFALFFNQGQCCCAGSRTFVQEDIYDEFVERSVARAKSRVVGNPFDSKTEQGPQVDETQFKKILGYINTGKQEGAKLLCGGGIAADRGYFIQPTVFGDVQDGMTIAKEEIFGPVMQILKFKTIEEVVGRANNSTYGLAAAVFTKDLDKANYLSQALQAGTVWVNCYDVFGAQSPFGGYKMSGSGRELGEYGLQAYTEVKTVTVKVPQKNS
Briefly: Reversible inhibition of ALDH2. Type of assay: biochemical.

Consider `O=c1c(-c2ccc(O)cc2)coc2cc(O[C@@H]3O[C@H](CO)[C@@H](O)[C@H](O)[C@H]3O)ccc12` [Daidzin], for which the “% Remaining” value is, setting by setting: (Daidzin 0.02 μmol/L) 106%; (Daidzin 0.05 μmol/L) 102%; (Daidzin 0.14 μmol/L) 93%; (Daidzin 0.41 μmol/L) 96%; (Daidzin 1.2 μmol/L) 76%; (Daidzin 3.7 μmol/L) 57%. Also, the “% Remaining” value was 27% (Daidzin 11 μmol/L), 16% (Daidzin 33 μmol/L) and 7% (Daidzin 100 μmol/L). In addition, the NADH runs as follows: (Daidzin 0.02 μmol/L) 132 nmol/min/mg; (Daidzin 0.05 μmol/L) 127 nmol/min/mg; (Daidzin 0.14 μmol/L) 117 nmol/min/mg; (Daidzin 0.41 μmol/L) 120 nmol/min/mg; (Daidzin 1.2 μmol/L) 95 nmol/min/mg; (Daidzin 3.7 μmol/L) 72 nmol/min/mg. Besides, the NADH is listed as 33 nmol/min/mg (Daidzin 11 μmol/L), 20 nmol/min/mg (Daidzin 33 μmol/L) and 8 nmol/min/mg (Daidzin 100 μmol/L).
